Test results reported in patent US6517812B1, “Inhibition of psychostimulant-induced and nicotine-induced craving” (The General Hospital Corporation, priority 1997, dated 2003).
Several values for one entry are separate records, joined by “and”; a condition that tells them apart may be missing. Equal entries are not always repeated. Where two headings read alike, the source gives them in different places.

How the values were obtained:
Assay type in all cases: in vivo
rat frontal cortex = experiment: BOLD fMRI in drug-naive rat after IV cocaine
Procedure: All procedures were carried out in accordance with NIH guidelines. Male Harlan Sprague-Dawley rats (225-300 gm) were anesthetized briefly with 1.5% halothane in oxygen for insertion of left femoral arterial and venous cannulae and placement of tracheostomy for mechanical ventilation (using a 16 gauge intravenous catheter, Inste-W, Becton Dickinson, Sandy, Utah). All wounds were infiltrated with 1% lidocaine before incision. Following surgery, the inspired halothane concentration was reduced to 0.7% and rats were paralyzed with 2 mg/kg intravenous pancuronium, followed by a continuous intravenous infusion of pancuronium at 2 mg/kg/hr. Pancuronium was dissolved in normal saline administered at 5 ml/kg/hr. Rats were mechanically ventilated (in a small animal volume controlled ventilator, Harvard Apparatus, Inc., South Natick, Mass.) with a 80/20 air/oxygen mixture, an inspiratory to expiratory ratio of 1:1, and an initial tidal volume of 3.0 ml at a rate of 40 breaths per minute. […] Arterial blood samples (150 μl) withdrawn from cannula were analyzed for arterial partial pressures of oxygen, carbon dioxide, and pH (Ciba-Coming Model 1304) before administration of drugs, and at the end of each experiment before sacrifice, to ensure animal stability. Arterial blood pressure and rectal temperature were monitored throughout the experiment. […]

[1] = test system: human brain, limbic and paralimbic regions; experiment: BOLD fMRI of brain activation after cocaine infusion (KS maps, pre vs post infusion); settings: voxels p<10^−5, four subjects
Procedure: Scanning was performed with a quadrature head-coil and a 1.5 T MR scanner (General Electric) modified for echo-planar imaging (Advanced NMR). Imaging involved the following protocol. First, a sagittal localizer scan [conventional T1-weighted spoiled gradient refocused gradient echo (SPGR) sequence; through-plane resolution=2.8 mm; 60 slices] was performed to orient, for subsequent scans, 15 contiguous axial slices covering the whole brain. This scan was also used as the structural scan for Talairach transformation. Next, an automated shimming technique was used to optimize B0 homogeneity (Reese et al., 1995, J. Magn. Reson. Imaging 5:739-745). This was followed by a SPGR T1-weighted flow-compensated scan (resolution=1.6 mm×1.6 mm×8 mm) scan, which was primarily obtained to aid Talairach transformation during data analysis (see Breiter et al., 1996, Arch. Gen. Psychiatry 53:595-606). The fourth scan was a T1-weighted echo planar inversion recovery sequence (TI=1200 msec, in-plane resolution=1.57 mm) for high-resolution structural images to be used in preliminary statistical maps, but not with Talairach transformed or averaged maps. Finally, BOLD imaging was performed using an asymmetric spin echo T2*-weighted sequence (TR=8000, TE=50, 180 refocusing pulse offset by −25 ms; FOV=40×20 cm; in-plane resolution=3.125 mm; through-plane resolution=8 mm; 15 contiguous axial slices covering the whole brain) to measure ‘activation’ (local changes in blood flow and oxygenation) (Kwong et al., 1992, Proc. Natl. Acad. Sci. 89:5675-5679; Ogawa et al., 1992, Proc. Natl. Acad. Sci. 89:5957-5955; Bandettini et al., 1992, Magn. Reson. Med. 25:390-397). Images were acquired interleaved for 136 time points for each infusion.
Motion correction: To reduce head motion, each subject was positioned using a bitebar, and echo-planar data was motion corrected using an algorithm (Jiang et al., 1995, Hun. Brain Mapp. 3:1-12) adapted from Woods et al (1992), and described elsewhere (Breiter et al., 1996, Arch. Gen. Psychiatry 53:595-606). […] After motion correction, time-series data were inspected to assure that no data set evidenced residual motion in the form of cortical rim or ventricular artifacts >1 voxel.
Talairach transformation: Each individual's set of infusion related functional images, along with the associated conventional structural scans, were transformed into Talairach space (Talairach et al., 1988, New York: Thieme Medical Publishers; Breiter et al., 1996, Arch. Gen. Psychiatry 53:595-606; Breiter et al., 1996, Neuron 17:875-887) and resliced in the coronal orientation over 57 slices with isotropic voxel dimensions (x,y,z=3.125 mm). […]

[2] = test system: cocaine-dependent volunteers; experiment: Behavioral ratings of rush, high, low and craving (integer scale 0 to 3) after cocaine infusion; settings: human
Description: During FAIR and BOLD infusion scans, behavioral measures of rush, high, low, and craving were obtained in a continuous sequence each minute. Thus, over each 15 second epoch, one rating scale would be projected for the subject's response. Given four scales, it took one minute to cycle through the complete set of scales. Timing of scan initiation, infusion onset and offset, and scan completion were linked with ongoing behavioral reports to allow subsequent correlational analysis between behavioral ratings and fMRI acquisitions. Behavioral responses were acquired with a four-button button-press which had been adapted to the magnet environment by construction with non-magnetic components and filtering of its output at the Faraday shield.
To obtain meaningful behavioral ratings during scanning, subjects were trained beforehand. The day before scanning, subjects were interviewed in depth by one of two board-certified psychiatrists to fully describe their experience of cocaine intake. These descriptions were then categorized by the psychiatrist and subject into four components: the rush, high, low, and craving which were to be rated on an integer scale of 0 (none) to 3 (maximum). The individualized conventions for description of subjective responses were then tested, during the unblinded pre-infusion with 0.2 mg/kg cocaine, on a portable computer with a program simulating that used in the MRI.
Of the four behavioral measures, only craving was defined operationally in terms of the action the individual wanted to engage in (to get more cocaine). The other three behavioral measures, rush, high, and low, were defined in terms of subjective feelings which were not necessarily associated with a behavioral output, or associated with the planning and implementation of physical activity. Thus, by definition, only craving was defined as a motivational state. In general, rush experiences involved physical sensations of elevated heart rate and sweating, along with internal feelings variously characterized as ‘speeding’ sensations and sensations of ‘being out-of-control’. In contrast, the high experience was generally associated with feelings of self-confidence, well-being, and sociability. The low experience encompassed all negative subjective feelings potentially associated with cocaine use such as anxiety, paranoia, dysphoria, or anhedonia; the majority of subjects in this study discussed the low in terms of dysphoric affect distinct from a diminishment in the high experience.
Behavioral Data: The integer output for each behavioral rating was segregated by category of rush, high, low, and craving. For the group data in FIG. 2, the 18 measures for each behavioral category obtained during the 18 minute BOLD infusion scan were averaged for the 9 subjects with both interpretable behavioral data and fMRI data. This averaged data was then utilized in the correlational analysis of the cocaine fMRI data.

[3] = Plasma cocaine levels after IV infusion (liquid chromatography with photodiode array detection); settings: human, 0.6 mg/kg IV; for Cmax: plasma, iv
Procedure: Sequential 4 ml venous blood samples were collected immediately before and at 1, 3, 5, 10, 15, 30, 60, 90 and 120 minutes following each infusion. The 120 minute sample for the first infusion was also the pre-infusion sample for the second infusion.
Plasma/Urine Levels: Cocaine quantitative assays were performed by the MGH Clinical Chemistry Laboratory using a liquid chromatography with photodiode array detection method they developed (Puopolo et al., 1992, Clin. Chem. 38:1838-1842), with minor modifications (flow rate increased from 2.0 to 2.6 ml/minute and LCPCN column length increased from 150 to 250 mm). Intra-assay imprecision at […] for cocaine is 5.1%, 5.7% and 6.6% respectively.

[4] = 0.6 mg/kg IV blinded, scale 0-3
[5] = 0.6 mg/kg IV, post-infusion, 0.6 mg/kg

COC(=O)[C@H]1[C@@H](OC(=O)c2ccccc2)C[C@@H]2CC[C@H]1N2C [cocaine]
time of return of BOLD contrast to baseline (rat frontal cortex; cocaine 0.5 mg/kg IV, after infusion): 20 min | maximal R2 (BOLD contrast) (rat frontal cortex; cocaine 1 mg/kg IV): 2.5 ± 0.6 s⁻¹ | percent signal change, NAc/SCC Left ([1]; retest condition): 2.3% | percent signal change, NAc/SCC Right ([1]; retest condition): 2.1% | percent signal change, NAc/SCC Left ([1]; test condition): 3.8% | percent signal change, NAc/SCC Right ([1]; test condition): 2.4% | craving rating ([2]; 0.2 mg/kg IV, unblinded): 1.0±1.3 | high rating ([2]; 0.2 mg/kg IV, unblinded): 1.7±1.2 | low rating ([2]; 0.2 mg/kg IV, unblinded): 0.8±0.8 | rush rating ([2]; 0.2 mg/kg IV, unblinded): 1.2±1.1 | peak craving rating [2, 4]: 1.3±0.9 | peak high rating [2, 4]: 2.1±0.8 | peak low rating [2, 4]: 0.9±0.8 | peak rush rating (mean±SD) [2, 4]: 2.2±1.1 | time of peak high ([2]; 0.6 mg/kg IV, post-infusion): 3 min | time of peak rush ([2]; 0.6 mg/kg IV, post-infusion): 3 min | time of peak craving [2, 5]: 12 min and 11 to 12 min | time of peak low [2, 5]: 11 min and 11 to 12 min | craving rating ([2]; retest infusion, four subjects): 1.0±1.2 | high rating ([2]; retest infusion, four subjects): 2.3±0.5 | low rating ([2]; retest infusion, four subjects): 1.0±0.8 | rush rating ([2]; retest infusion, four subjects): 1.8±1.0 | time to peak cocaine plasma concentration, mean±SD ([3]; 4 subjects with re-test experiments): 6.0 ± 2.9 min | time to peak cocaine plasma concentration, mean±SD ([3]; initial series of experiments, 0.6 mg/kg): 7.6 ± 4.2 min and ~7 min | Cmax ([3]; 0.6 mg/kg, n=7, range over subjects, read-out: Peak plasma cocaine levels (Cmax), range): 197 to 893 ng/mL | Cmax ([3]; 0.6 mg/kg, n=7 subjects with complete data, read-out: Peak plasma cocaine levels (Cmax), mean): 389 ± 233 ng/mL
